Reference: ChEMBL document CHEMBL5291721, “A preclinical secondary pharmacology resource illuminates target-adverse drug reaction associations of marketed drugs” (Nat Commun, 2023)

What was measured:
Adenosine receptor A2a = Adenosine receptor A2a (Homo sapiens, UniProt P29274)
Motilin receptor = Motilin receptor (Homo sapiens, UniProt O43193)
[1] = target: 3',5'-cyclic-AMP phosphodiesterase 4D (Homo sapiens, UniProt Q08499); type: functional
[2] = target: T1, Type-1 angiotensin II receptor (Homo sapiens, UniProt P30556)
T1 sequence (P30556 whole entry): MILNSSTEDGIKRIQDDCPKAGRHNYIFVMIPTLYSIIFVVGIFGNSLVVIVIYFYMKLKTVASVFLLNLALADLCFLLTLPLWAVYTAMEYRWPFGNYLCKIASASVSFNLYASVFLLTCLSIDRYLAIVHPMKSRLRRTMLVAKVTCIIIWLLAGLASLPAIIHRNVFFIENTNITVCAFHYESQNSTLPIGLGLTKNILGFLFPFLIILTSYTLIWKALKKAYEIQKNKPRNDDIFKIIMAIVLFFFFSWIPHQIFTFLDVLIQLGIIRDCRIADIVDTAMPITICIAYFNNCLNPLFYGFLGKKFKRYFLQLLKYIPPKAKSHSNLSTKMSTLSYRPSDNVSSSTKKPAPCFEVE

[3] = target: Gamma-aminobutyric acid receptor subunit alpha-1 (Rattus norvegicus, UniProt P62813); type: functional
[4] = target: T2, Alpha-2C adrenergic receptor (Homo sapiens, UniProt P18825); type: functional
T2 sequence (P18825 whole entry): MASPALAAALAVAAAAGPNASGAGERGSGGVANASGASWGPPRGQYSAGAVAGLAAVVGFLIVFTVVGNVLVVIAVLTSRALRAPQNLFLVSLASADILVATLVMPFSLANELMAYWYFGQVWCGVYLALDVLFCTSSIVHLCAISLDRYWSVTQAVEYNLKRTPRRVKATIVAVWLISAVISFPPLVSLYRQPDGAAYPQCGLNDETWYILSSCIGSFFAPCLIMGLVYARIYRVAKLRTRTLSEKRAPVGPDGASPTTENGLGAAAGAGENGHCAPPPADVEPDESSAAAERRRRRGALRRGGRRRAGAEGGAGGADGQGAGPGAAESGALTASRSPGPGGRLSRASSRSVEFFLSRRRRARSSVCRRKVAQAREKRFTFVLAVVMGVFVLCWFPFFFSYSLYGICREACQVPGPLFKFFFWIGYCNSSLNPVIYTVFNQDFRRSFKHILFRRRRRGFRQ

[5] = target: 5-hydroxytryptamine receptor 2B (Homo sapiens, UniProt P41595); type: functional, cell-based
[6] = target: T3, 5-hydroxytryptamine receptor 3A (Homo sapiens, UniProt P46098); type: functional
T3 sequence (P46098 whole entry): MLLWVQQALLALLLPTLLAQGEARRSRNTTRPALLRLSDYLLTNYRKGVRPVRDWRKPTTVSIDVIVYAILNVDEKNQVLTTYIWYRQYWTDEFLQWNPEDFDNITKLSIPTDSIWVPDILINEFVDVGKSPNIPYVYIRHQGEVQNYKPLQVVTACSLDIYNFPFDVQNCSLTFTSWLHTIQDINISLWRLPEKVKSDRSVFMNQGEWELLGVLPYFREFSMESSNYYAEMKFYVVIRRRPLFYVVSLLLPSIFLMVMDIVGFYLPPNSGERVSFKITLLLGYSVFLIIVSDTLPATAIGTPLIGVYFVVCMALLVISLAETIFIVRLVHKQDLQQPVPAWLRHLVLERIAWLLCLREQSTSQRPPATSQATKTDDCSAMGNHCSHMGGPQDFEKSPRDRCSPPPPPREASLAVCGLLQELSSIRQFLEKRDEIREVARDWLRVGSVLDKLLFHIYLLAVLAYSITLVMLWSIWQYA

[7] = target: T4, Alpha-2A adrenergic receptor (Homo sapiens, UniProt P08913); type: functional, cell-based
T4 sequence (P08913 whole entry): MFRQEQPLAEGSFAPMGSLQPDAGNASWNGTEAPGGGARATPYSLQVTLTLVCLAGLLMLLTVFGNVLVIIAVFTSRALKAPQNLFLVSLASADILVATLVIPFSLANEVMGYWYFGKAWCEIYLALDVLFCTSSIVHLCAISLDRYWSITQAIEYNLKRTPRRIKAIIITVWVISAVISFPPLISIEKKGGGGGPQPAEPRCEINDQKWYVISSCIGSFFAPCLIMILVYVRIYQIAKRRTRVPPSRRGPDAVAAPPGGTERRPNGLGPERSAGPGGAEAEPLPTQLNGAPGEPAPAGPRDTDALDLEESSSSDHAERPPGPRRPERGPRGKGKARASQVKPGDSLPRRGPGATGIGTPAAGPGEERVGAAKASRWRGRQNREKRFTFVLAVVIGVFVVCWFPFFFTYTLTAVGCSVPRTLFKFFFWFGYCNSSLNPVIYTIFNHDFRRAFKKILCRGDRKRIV

D(3) dopamine receptor = D(3) dopamine receptor (Homo sapiens, UniProt P35462)
[8] = target: T5, Equilibrative nucleoside transporter 1 (Homo sapiens, UniProt Q99808)
T5 sequence (Q99808 whole entry): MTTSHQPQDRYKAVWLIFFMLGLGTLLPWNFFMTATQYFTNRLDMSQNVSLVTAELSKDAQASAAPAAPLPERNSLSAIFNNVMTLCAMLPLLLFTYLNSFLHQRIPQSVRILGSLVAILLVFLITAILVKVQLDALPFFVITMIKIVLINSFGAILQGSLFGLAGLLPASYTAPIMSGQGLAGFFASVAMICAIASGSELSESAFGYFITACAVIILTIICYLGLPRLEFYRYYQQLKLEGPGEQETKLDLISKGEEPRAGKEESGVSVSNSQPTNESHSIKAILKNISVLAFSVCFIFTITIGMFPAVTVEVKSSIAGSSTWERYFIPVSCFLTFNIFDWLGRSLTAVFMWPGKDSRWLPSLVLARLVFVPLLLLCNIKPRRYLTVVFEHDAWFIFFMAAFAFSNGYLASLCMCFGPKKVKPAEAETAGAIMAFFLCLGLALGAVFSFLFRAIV

[9] = target: Neuronal acetylcholine receptor subunit alpha-4 (Homo sapiens, UniProt P43681)
Melanocortin receptor 3 = Melanocortin receptor 3 (Homo sapiens, UniProt P41968)
[10] = target: cGMP-inhibited 3',5'-cyclic phosphodiesterase 3A (Homo sapiens, UniProt Q14432); type: functional
[11] = target: Sodium-dependent noradrenaline transporter (Homo sapiens, UniProt P23975)
[12] = target: Voltage-gated inwardly rectifying potassium channel KCNH2 (Homo sapiens, UniProt Q12809); type: functional; settings: read-out: AC50
Further: assay procedure not described here.

Chain of Gamma-aminobutyric acid receptor subunit alpha-1 (P62813 whole entry): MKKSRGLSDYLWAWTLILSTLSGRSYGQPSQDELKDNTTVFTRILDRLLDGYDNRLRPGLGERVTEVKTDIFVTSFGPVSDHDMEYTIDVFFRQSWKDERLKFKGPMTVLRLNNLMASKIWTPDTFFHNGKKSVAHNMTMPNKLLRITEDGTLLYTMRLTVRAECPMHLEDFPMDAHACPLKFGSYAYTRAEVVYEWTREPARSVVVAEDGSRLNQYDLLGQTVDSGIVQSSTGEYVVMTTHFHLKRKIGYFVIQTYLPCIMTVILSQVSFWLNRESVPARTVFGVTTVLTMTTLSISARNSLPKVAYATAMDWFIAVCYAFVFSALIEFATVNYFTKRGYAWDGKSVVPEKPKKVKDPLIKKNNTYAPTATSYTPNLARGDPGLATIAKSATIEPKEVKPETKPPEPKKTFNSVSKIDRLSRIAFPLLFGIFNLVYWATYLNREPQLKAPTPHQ
Chain of cGMP-inhibited 3',5'-cyclic phosphodiesterase 3A (Q14432 whole entry): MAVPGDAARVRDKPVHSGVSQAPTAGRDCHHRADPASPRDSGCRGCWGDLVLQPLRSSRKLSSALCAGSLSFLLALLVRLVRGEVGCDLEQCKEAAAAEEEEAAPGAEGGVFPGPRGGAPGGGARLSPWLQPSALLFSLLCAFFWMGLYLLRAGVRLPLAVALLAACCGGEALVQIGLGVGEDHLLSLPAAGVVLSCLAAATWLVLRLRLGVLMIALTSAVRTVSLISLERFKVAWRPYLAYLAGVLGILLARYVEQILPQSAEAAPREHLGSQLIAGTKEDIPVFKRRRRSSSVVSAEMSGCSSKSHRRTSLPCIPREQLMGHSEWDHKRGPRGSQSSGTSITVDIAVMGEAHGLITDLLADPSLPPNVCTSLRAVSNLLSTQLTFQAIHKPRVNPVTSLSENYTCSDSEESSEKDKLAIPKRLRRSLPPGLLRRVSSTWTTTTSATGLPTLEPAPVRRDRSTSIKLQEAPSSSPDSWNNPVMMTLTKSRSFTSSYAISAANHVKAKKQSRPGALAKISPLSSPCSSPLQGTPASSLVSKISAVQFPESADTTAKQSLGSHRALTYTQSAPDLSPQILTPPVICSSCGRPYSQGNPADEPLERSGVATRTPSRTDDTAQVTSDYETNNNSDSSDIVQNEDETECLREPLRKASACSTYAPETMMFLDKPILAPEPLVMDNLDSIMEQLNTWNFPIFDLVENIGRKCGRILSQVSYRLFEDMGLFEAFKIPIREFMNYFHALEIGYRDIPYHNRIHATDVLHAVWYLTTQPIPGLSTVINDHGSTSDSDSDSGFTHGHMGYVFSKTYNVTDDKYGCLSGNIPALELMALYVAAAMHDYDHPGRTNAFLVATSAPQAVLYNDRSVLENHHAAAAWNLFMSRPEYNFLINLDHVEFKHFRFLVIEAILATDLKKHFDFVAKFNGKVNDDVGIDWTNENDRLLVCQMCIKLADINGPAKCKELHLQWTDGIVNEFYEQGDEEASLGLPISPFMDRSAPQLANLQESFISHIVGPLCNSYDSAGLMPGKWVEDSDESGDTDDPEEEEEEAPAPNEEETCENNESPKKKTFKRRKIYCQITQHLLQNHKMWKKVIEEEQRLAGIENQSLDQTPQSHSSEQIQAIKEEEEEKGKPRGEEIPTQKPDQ
Chain of Voltage-gated inwardly rectifying potassium channel KCNH2 (Q12809 whole entry): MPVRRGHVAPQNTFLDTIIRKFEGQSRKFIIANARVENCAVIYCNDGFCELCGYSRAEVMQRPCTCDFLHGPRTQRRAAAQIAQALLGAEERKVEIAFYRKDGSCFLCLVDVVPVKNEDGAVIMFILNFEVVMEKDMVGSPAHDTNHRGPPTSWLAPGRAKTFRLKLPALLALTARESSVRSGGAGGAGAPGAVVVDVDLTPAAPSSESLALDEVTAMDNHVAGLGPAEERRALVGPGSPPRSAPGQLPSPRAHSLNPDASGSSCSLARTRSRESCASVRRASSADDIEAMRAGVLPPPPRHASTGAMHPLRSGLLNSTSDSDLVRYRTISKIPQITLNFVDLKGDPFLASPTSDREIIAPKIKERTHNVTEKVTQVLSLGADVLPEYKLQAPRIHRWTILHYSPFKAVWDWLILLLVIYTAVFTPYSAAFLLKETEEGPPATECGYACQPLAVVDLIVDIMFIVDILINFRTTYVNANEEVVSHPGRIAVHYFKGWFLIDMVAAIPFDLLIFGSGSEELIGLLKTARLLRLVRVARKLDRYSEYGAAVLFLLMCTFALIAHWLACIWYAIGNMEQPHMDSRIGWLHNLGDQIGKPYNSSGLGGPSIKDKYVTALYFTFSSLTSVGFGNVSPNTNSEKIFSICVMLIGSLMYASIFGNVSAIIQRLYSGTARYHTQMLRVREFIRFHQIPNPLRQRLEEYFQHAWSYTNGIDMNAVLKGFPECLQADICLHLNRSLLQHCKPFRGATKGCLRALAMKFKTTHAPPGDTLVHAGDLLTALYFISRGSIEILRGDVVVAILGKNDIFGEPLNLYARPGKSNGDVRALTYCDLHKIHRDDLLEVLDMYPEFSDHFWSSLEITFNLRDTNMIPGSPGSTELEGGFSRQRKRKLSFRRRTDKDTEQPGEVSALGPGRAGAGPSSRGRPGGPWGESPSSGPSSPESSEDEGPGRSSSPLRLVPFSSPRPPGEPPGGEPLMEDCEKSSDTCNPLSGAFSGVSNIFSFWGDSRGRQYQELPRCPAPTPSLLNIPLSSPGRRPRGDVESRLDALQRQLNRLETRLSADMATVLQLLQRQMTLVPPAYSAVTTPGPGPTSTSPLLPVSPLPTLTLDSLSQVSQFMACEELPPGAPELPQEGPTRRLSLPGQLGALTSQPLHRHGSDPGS
Chain of Adenosine receptor A2a (P29274 whole entry): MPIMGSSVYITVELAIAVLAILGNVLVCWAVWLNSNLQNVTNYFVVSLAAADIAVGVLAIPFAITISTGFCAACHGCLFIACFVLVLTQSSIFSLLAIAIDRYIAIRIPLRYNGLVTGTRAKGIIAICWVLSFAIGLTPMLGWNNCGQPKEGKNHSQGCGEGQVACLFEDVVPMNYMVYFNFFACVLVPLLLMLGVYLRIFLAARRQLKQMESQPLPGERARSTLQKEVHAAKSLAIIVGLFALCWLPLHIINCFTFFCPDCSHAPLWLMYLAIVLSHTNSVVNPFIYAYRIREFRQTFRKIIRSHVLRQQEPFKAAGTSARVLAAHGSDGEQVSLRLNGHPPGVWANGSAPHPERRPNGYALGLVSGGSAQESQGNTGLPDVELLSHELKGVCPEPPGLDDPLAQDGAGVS
Chain of Neuronal acetylcholine receptor subunit alpha-4 (P43681 whole entry): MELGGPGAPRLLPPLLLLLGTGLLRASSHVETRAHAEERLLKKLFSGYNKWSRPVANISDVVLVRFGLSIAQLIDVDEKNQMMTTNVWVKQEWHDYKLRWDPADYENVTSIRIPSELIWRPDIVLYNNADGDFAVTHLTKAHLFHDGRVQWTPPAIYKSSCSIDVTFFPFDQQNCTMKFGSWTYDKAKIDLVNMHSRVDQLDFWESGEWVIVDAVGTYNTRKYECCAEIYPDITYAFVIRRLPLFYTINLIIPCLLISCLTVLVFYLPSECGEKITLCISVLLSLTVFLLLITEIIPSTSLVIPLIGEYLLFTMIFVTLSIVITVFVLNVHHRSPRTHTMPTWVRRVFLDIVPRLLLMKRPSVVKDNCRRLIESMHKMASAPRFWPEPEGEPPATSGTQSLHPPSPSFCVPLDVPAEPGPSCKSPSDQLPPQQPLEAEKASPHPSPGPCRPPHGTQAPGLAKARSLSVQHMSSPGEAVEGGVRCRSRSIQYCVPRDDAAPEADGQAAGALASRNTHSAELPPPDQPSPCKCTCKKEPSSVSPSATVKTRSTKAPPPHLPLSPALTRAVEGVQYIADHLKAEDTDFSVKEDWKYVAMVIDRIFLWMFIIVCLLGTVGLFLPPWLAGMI
Chain of Melanocortin receptor 3 (P41968 whole entry): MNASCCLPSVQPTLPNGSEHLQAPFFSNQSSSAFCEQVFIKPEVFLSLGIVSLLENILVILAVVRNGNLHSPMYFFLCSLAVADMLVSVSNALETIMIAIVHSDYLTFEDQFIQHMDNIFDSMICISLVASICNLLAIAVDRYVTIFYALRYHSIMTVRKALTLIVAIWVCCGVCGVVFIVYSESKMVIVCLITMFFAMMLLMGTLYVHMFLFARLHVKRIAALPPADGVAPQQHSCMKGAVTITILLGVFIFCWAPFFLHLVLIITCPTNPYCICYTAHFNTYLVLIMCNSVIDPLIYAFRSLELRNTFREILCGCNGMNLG
Chain of Motilin receptor (O43193 whole entry): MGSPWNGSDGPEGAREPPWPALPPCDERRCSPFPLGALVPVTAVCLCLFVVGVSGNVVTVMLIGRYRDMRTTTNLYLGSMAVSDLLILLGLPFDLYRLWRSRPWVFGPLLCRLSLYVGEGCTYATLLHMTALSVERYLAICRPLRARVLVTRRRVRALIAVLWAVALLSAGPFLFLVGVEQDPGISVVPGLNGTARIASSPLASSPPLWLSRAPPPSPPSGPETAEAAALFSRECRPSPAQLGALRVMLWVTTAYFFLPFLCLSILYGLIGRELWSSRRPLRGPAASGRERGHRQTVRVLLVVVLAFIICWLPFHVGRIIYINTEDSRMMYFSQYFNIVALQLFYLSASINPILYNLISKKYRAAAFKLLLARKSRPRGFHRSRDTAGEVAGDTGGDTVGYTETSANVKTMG
Chain of 5-hydroxytryptamine receptor 2B (P41595 whole entry): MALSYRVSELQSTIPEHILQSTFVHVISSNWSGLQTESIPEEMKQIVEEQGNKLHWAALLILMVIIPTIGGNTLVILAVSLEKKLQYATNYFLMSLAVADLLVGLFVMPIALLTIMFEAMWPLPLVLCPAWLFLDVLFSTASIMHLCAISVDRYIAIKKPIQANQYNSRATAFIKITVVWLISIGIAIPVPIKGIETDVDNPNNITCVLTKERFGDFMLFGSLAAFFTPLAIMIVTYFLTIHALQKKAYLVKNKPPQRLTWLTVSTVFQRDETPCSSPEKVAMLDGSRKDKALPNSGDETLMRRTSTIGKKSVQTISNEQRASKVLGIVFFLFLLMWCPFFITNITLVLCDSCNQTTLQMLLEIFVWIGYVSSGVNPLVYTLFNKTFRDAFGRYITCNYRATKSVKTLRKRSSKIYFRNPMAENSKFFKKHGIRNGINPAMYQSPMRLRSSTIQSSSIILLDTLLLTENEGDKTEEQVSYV

AC50 (Adenosine receptor A2a) | AC50 (Motilin receptor) | AC50 [1] | AC50 [2] | AC50 [3] | AC50 [4] | AC50 [5] | AC50 [6] | AC50 [7] | AC50 (D(3) dopamine receptor) | AC50 [8] | AC50 [9] | AC50 (Melanocortin receptor 3) | AC50 [10] | AC50 [11] | Compound | AC50 [12]
> 30 µM | > 30 µM | > 30 µM | > 30 µM | > 30 µM | > 30 µM | > 30 µM | > 30 µM | > 30 µM | > 30 µM | > 30 µM | > 30 µM | > 30 µM | > 30 µM | > 30 µM | COC(=O)N[C@H](C(=O)N1CCC[C@H]1c1nc(-c2ccc(-c3ccc(-c4c[nH]c([C@@H]5CCCN5C(=O)[C@@H](NC(=O)OC)C(C)C)n4)cc3)cc2)c[nH]1)C(C)C | 
> 30 µM | > 30 µM | > 30 µM | > 30 µM | > 30 µM | 2.4 µM |  | 2.4 µM | > 30 µM | 6.5 µM | > 30 µM | 17 µM | > 30 µM | > 30 µM | 4.7 µM | CN1CCCC(n2nc(Cc3ccc(Cl)cc3)c3ccccc3c2=O)CC1 (stereo not drawn) [AZELASTINE] | 
> 30 µM | > 10 µM | > 30 µM | > 30 µM | > 10 µM | > 10 µM | > 10 µM | > 30 µM | > 10 µM | > 10 µM | > 30 µM | > 10 µM | > 30 µM | > 30 µM | > 10 µM | CCC[C@@H]1C[C@@H](C(=O)N[C@@H]([C@H]2O[C@H](SC)[C@H](O)[C@@H](O)[C@H]2O)[C@H](C)Cl)N(C)C1 [CLINDAMYCIN] | 
> 30 µM | > 10 µM | > 30 µM | 15.6 µM | > 10 µM | 6.2 µM |  | > 30 µM | > 10 µM |  | > 30 µM | > 10 µM | > 30 µM | > 30 µM | 6.1 µM | COc1cc2c(cc1OC)C(=O)C(CC1CCN(Cc3ccccc3)CC1)C2 (stereo not drawn) [DONEPEZIL] | 
> 30 µM | > 30 µM | > 30 µM | > 30 µM |  | > 30 µM | > 30 µM |  | > 30 µM |  | > 30 µM | > 30 µM | > 30 µM | > 30 µM | > 30 µM | Cc1cccc(C)c1OCC(C)N (stereo not drawn) [MEXILETINE] | > 30 µM
5.5 µM | > 10 µM | 11 µM | > 10 µM | > 10 µM | > 10 µM | > 10 µM | > 30 µM | > 10 µM | 10 µM | > 10 µM | > 10 µM | > 10 µM | 6.2 µM | > 10 µM | COC(=O)C1=C(C)NC(C)=C(C(=O)OCC(C)C)C1c1ccccc1[N+](=O)[O-] (stereo not drawn) [NISOLDIPINE] | 
> 30 µM | 2.8 µM | > 30 µM | 11 µM | > 30 µM | > 30 µM |  | > 30 µM | > 30 µM | > 30 µM | > 30 µM | > 30 µM | 23.2 µM | > 30 µM | > 30 µM | CNC(=O)c1cc(Oc2ccc(NC(=O)Nc3ccc(Cl)c(C(F)(F)F)c3)cc2)ccn1 [SORAFENIB] | > 30 µM
> 30 µM | 14 µM | 18 µM | > 30 µM | > 30 µM | > 30 µM | > 30 µM | > 30 µM | > 30 µM | > 30 µM | > 30 µM | > 30 µM | 26 µM | > 30 µM | 23 µM | OCc1cc([C@@H](O)CNCCCCCCOCCOCc2c(Cl)cccc2Cl)ccc1O [VILANTEROL] | 
> 30 µM | > 30 µM | > 30 µM | > 30 µM | > 30 µM | > 30 µM | > 30 µM | > 30 µM | > 30 µM | > 30 µM | > 30 µM | > 30 µM | > 30 µM | > 30 µM | > 30 µM | O=C(CCCCCCC(=O)Nc1ccccc1)NO [VORINOSTAT] | 

Compound | AC50 (Adenosine receptor A2a) | AC50 (Motilin receptor) | AC50 [1] | AC50 [2] | AC50 [3] | AC50 [4] | AC50 [5] | AC50 [6] | AC50 [7] | AC50 (D(3) dopamine receptor) | AC50 [8] | AC50 [9] | AC50 (Melanocortin receptor 3) | AC50 [10] | AC50 [11] | AC50 [12]
COc1cc(Nc2c(C#N)cnc3cc(OCCCN4CCN(C)CC4)c(OC)cc23)c(Cl)cc1Cl [BOSUTINIB] | > 30 µM | > 10 µM | > 30 µM | > 30 µM | > 10 µM | 1 µM |  | > 10 µM |  | 5.6 µM | 32.5 µM | > 10 µM | 18.1 µM | > 30 µM | > 10 µM | 
CN(CCOc1ccc(NS(C)(=O)=O)cc1)CCc1ccc(NS(C)(=O)=O)cc1 [DOFETILIDE] | > 30 µM | > 10 µM | > 30 µM | 9.5 µM | > 10 µM | > 10 µM | > 30 µM | > 30 µM | > 30 µM | 0.78 µM | > 30 µM | > 10 µM | > 30 µM | > 30 µM | > 10 µM | 
CCc1ccc(CCOc2ccc(CC3SC(=O)NC3=O)cc2)nc1 (stereo not drawn) [PIOGLITAZONE] | > 30 µM | > 10 µM | > 10 µM | > 30 µM | > 10 µM | > 10 µM | > 10 µM | > 10 µM | > 10 µM | > 10 µM | > 30 µM |  | > 30 µM | > 30 µM | > 30 µM | > 30 µM
